The structures appear in SMILES notation.

Consider eight compounds from ChEMBL document CHEMBL5465560, “Selectivity Literature for EUbOPEN Chemogenomic Library” (2024).

Assay [1] concerns the target T1, Discoidin domain-containing receptor 2 (Homo sapiens) (UniProt Q16832).
T1 sequence (whole entry): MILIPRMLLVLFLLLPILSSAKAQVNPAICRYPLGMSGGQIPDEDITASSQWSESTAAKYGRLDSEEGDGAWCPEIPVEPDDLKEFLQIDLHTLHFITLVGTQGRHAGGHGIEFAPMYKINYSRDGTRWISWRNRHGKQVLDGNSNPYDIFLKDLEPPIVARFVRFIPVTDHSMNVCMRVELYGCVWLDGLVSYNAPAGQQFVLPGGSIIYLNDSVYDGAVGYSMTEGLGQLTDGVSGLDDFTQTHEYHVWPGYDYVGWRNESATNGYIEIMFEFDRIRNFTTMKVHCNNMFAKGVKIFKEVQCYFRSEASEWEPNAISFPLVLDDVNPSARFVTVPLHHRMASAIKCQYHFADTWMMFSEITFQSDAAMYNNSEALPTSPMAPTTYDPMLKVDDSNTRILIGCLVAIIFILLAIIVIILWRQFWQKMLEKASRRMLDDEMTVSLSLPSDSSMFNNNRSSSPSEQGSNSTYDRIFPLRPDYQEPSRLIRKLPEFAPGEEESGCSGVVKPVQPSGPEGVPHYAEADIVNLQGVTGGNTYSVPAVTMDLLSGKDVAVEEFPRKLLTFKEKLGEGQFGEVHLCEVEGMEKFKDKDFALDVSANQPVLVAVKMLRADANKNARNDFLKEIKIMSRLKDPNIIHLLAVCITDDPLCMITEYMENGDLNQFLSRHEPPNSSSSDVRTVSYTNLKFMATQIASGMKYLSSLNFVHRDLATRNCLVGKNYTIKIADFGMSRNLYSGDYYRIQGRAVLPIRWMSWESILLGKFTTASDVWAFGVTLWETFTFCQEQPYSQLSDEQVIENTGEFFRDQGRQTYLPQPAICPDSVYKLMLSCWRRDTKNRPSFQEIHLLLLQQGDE
Particulars: at 10 µM.

Assay [2] has as its target Tyrosine-protein kinase Srms (Homo sapiens) (UniProt Q9H3Y6). The conditions noted are these: at 10 µM.
Assay [3] deals with Serine/threonine-protein kinase Chk2 (Homo sapiens) (UniProt O96017). As to the kind of experiment: Selectivity interaction (Kinase panel (DSF assay)) EUB0001558a CHEK2. Background: In DSF a fluorescence change marks the thermal transition of the protein.
Sequence of Serine/threonine-protein kinase Chk2 (Homo sapiens) (O96017 whole entry): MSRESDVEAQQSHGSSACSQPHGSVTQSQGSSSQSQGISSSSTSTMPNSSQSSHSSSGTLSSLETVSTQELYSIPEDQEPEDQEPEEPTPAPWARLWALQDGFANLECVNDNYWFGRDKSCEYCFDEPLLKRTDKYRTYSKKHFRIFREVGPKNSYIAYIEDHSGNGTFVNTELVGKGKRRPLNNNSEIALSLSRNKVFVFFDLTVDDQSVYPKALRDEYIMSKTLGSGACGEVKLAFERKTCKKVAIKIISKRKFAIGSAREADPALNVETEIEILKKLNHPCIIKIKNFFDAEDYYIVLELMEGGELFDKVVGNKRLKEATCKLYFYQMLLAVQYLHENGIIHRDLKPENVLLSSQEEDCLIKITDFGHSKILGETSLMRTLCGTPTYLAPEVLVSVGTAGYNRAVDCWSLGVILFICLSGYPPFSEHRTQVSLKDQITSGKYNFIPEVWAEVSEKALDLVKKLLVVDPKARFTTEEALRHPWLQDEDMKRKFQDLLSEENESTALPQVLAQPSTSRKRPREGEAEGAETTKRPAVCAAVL
For assay [4], the target named is Ribosomal protein S6 kinase alpha-3 (Homo sapiens, UniProt P51812). As to the kind of experiment: Selectivity interaction (Ambit KINOMEscan and KiNATiv profiling in Jurkat cells) EUB0000090b RPS6KA3. Format: cell-based. Particulars: at 1 µM.
Sequence of Ribosomal protein S6 kinase alpha-3 (P51812 whole entry, the tested form may be a part): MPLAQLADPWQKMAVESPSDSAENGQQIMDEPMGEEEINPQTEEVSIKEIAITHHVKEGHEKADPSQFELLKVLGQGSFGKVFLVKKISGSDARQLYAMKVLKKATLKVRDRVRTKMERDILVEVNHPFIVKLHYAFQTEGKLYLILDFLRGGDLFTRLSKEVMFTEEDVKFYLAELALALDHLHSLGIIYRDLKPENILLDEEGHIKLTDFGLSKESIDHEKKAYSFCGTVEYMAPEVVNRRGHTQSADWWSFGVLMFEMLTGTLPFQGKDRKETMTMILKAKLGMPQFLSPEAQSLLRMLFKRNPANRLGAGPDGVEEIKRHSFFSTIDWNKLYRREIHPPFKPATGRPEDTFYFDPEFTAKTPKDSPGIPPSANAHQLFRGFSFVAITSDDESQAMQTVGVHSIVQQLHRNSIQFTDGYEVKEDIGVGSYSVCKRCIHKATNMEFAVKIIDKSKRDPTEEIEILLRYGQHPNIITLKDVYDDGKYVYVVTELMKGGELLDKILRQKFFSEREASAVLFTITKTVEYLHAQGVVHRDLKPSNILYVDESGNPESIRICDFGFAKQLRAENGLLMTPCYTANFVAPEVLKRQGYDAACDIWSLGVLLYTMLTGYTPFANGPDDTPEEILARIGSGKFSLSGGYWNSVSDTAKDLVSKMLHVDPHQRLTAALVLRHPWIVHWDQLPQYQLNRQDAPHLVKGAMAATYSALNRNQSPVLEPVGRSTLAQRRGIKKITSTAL
Assay [5] can be described thus: Selectivity interaction (PWWP, WD40, and Tudor domain panel (DSLS measurements, literature)) EUB0000270b SCML2.
The target in assay [6] is T2, Interleukin-1 receptor-associated kinase 4 (Homo sapiens) (UniProt Q9NWZ3).
T2 sequence (whole entry): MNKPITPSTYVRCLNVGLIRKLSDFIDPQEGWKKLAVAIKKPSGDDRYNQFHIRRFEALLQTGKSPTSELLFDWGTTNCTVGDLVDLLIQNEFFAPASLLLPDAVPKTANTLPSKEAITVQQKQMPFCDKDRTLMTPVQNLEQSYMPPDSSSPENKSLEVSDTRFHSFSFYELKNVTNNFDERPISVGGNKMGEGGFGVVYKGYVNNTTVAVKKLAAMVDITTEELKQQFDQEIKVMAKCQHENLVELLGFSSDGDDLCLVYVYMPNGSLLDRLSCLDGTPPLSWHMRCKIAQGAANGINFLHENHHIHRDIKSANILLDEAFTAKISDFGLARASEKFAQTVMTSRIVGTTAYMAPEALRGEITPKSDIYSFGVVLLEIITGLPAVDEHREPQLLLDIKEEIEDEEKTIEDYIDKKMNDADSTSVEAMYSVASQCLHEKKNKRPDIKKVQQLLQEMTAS
The assay is described as follows: Selectivity interaction (KinomeScan (DiscoverX)) EUB0000045b IRAK4.

For assay [7], the target named is Fibroblast growth factor receptor 2 (Homo sapiens) (UniProt P21802). As to the kind of experiment: Selectivity interaction (KinomeScan (DiscoverX)) EUB0000666a FGFR2. The conditions noted are these: at 10 µM.
Sequence of Fibroblast growth factor receptor 2 (Homo sapiens) (P21802 22-821 limits assumed): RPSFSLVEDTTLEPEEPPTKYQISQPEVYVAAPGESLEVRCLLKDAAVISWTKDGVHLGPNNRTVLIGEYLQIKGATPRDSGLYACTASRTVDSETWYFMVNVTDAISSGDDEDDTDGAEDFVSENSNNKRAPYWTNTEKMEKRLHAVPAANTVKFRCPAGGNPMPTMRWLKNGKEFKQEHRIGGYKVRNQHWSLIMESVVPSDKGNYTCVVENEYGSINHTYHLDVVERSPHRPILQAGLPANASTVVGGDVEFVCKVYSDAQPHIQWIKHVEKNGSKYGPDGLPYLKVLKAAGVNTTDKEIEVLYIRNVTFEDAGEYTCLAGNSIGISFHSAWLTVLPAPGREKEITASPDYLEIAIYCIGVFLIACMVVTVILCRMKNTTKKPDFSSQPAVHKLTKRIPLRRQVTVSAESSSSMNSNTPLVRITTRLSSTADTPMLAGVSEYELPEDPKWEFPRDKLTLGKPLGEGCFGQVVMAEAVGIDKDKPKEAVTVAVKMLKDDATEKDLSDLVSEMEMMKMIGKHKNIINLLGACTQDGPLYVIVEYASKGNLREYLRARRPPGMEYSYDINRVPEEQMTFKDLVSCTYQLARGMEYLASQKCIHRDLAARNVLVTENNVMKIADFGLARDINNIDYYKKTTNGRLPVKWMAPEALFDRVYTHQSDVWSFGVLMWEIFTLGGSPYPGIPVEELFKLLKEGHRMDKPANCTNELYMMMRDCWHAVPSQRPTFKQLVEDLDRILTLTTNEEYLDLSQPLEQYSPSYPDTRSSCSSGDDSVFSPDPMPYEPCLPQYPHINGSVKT
Assay [8] deals with Tyrosine-protein kinase Blk (Homo sapiens) (UniProt P51451). The assay is described as follows: Selectivity interaction (Kinase panel (Invitrogen)) EUB0000639a BLK. The conditions noted are these: at 200 nM.
Sequence of Tyrosine-protein kinase Blk (Homo sapiens) (P51451 2-505 limits assumed): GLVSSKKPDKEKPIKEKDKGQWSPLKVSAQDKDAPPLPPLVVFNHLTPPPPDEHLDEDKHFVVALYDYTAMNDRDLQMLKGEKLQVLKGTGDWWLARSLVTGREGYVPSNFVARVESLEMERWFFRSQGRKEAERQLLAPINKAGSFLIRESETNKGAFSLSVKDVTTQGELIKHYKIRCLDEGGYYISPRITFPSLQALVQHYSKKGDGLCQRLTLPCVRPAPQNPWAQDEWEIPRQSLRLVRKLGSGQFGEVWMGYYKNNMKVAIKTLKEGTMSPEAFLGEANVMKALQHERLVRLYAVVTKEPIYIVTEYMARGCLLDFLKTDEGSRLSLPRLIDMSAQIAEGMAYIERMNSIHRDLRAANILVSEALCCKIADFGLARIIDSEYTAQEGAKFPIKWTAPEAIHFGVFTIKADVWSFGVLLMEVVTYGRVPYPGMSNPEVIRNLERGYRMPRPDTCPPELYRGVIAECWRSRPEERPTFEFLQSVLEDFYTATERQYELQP
Assay [9] concerns the target T3, Serine/threonine-protein kinase STK11 (Homo sapiens) (UniProt Q15831).
T3 sequence (whole entry): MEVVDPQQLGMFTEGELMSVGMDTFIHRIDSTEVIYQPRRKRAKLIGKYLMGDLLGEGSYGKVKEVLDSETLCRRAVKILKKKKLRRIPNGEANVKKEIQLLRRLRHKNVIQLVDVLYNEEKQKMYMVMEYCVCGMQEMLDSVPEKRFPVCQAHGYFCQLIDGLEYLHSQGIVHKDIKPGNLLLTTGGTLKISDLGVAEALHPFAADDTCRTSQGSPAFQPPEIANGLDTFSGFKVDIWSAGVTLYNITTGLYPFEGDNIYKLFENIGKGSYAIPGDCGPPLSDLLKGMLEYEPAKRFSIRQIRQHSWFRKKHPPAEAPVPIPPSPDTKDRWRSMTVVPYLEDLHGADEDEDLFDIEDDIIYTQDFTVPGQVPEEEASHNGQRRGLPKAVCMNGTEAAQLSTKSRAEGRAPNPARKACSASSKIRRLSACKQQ
The assay is described as follows: Selectivity interaction (Kinase panel (KiNativ target engagement assay in Jurkat cells)) EUB0001635a STK11. The conditions noted are these: Selectivity number of off-targets 0.0, Selectivity number of targets 233.0, Source Knowledge https://www.sciencedirect.com/science/article/pii/S2451945619300674?via%3Dihub, at 1 µM. It is filed as cell-based.

Sequence of Tyrosine-protein kinase Srms (Homo sapiens) (Q9H3Y6 whole entry): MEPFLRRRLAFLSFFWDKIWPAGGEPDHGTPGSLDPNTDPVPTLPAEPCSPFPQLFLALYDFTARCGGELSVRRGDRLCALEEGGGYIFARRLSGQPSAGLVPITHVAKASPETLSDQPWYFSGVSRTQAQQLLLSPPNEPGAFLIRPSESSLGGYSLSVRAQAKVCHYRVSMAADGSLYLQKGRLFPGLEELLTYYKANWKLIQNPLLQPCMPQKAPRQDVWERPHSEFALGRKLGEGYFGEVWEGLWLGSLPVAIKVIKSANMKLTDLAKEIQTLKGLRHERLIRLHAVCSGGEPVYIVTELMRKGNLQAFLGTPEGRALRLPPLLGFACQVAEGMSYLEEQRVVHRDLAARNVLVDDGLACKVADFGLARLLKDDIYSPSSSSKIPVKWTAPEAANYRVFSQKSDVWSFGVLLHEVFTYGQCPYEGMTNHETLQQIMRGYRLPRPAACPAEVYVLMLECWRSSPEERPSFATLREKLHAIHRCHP

On to `Cc1cc([C@@H](C)Nc2ccccc2C(=O)O)c2nc(N3CCOCC3)cc(=O)n2c1` [AZD-6482], for which the results for the % of control in [1] and in [2] were 83% and 63%, respectively.

`CC(C)(O)[C@H](F)CN1Cc2cc(NC(=O)c3cnn4cccnc34)c(N3CCOCC3)cc2C1=O` displayed a dTM in assay [3] of 1.5 K.

In the case of `CN(C)C/C=C/C(=O)Nc1ccc(C(=O)N2CCCC(Nc3ncc(Cl)c(-c4c[nH]c5ccccc45)n3)C2)cc1` (stereo not given), the % of control in [4] amounted to 5%.

For the compound `Cc1cc(CN)cc(C)c1-c1ncn(C)c1-c1cncn1C`, the dTagg in [5] came to 0.2 K.

Take `C=CC(=O)Nc1cc(-n2c(=O)ccc3cnc4ccc(-c5ccc(NS(C)(=O)=O)cc5)cc4c32)ccc1C`: the values for the % of control in assay [6] (at 1 µM) and in [6] (at 10 µM) were 84% and 100%, respectively.

With `O=C(NOC[C@H](O)CO)c1ccc(F)c(F)c1Nc1ccc(I)cc1F`, in assay [7], the % of control was found to be 100%.

`CC[C@@H]1[C@H](F)C(=O)N[C@@H]1COc1nccc2cc(C(N)=O)c(OC)cc12` [ZIMLOVISERTIB] yielded a % of inhibition in assay [8] of 4.04%.

Take `C=CC(=O)Nc1ccc(C(=O)Nc2[nH]nc3c2CN(C(=O)N[C@H](CN(C)C)c2ccccc2)C3(C)C)cc1`: the % of engagement in [9] worked out at 11.1%.
